Here are results for two substances from patent US20210347823A1, “METHODS OF PHYSICOCHEMICAL-GUIDED PEPTIDE DESIGN AND NOVEL PEPTIDES DERIVED THEREFROM” (Massachusetts Institute of Technology, priority 2018, published 2021).

For experiment [1], the system named is Escherichia coli strain BL21. The experiment can be described thus: MIC assay (broth microdilution) against E. coli BL21. The class given is cell-based. To be noted: E. coli BL21, 24 h, 37° C. The text has this: (§1) FIGS. 2A-2E. Design, physicochemical features and activity of Pol-CP—NH2 and Ala-scan analogs. FIG. 2A. Theoretical physicochemical properties of interest of the wild type and Ala-scan analogs, where H denotes hydrophobicity, μH is the hydrophobic moment, q represents the net charge and P/N is the ratio of polar/non-polar residues in the sequence. Top to bottom, left to right the sequences correspond to SEQ ID NOs: 1-13. FIG. 2B. Schematic of the in vitro biological activity experimental design. Briefly, 10^4 bacterial cells and serially diluted peptides (0-128 μmol L^−1) were added to a 96-well plate and incubated at 37° C. One day after the exposure, the solution in each well was measured in a microplate reader (600 nm) to check inhibition of bacteria compared to the untreated controls and presented as heat maps of antimicrobial activities (μmol L^−1) against four bacteria strains: E. coli strain BL21, S. aureus strain ATCC12600 and P. aeruginosa strains PA01, and PA14. Assays were performed in triplicates. FIG. 2C. Graph correlating MIC (μmol L^−1) averages vs H and (FIG. 2D) MIC (μmol L^−1) averages vs μH, where dots […] the dashed line show peptides with higher activity compared to the wild type, in which one can observe ranges of optimal activity in determined intervals of H and μH values. FIG. 2E. […]

Experiment [2] deals with P. aeruginosa strain PA01. The experiment in a line: MIC assay (broth microdilution) against P. aeruginosa PA01. Type of experiment: cell-based, Pseudomonas aeruginosa. To be noted: P. aeruginosa PA01, 24 h, 37° C.
Text: as §1
On the technique in general: Broth dilution looks for growth in wells or tubes with falling amounts of substance.

Experiment [3] deals with P. aeruginosa strain PA14. The experiment in a line: MIC assay (broth microdilution) against P. aeruginosa PA14. The class given is cell-based, Pseudomonas aeruginosa. To be noted: P. aeruginosa PA14, 24 h, 37° C.
Text: as §1

Experiment [4] has as its system P. aeruginosa strain PA14. The experiment in a line: Scarification skin infection mouse model. Type of experiment: in vivo, female CD-1 mice. The procedure: FIGS. 8A-8D. In vivo activity of Pol-CP—NH2 and its analogs. FIG. 8A. Schematic of the experimental design. Briefly, the back of mice was shaved and an abrasion was generated to damage the stratum corneum and the upper layer of the epidermis. Subsequently, an aliquot of 50 μL containing 5×10^7 CFU of P. aeruginosa in PBS was inoculated over each defined area. One day after the infection, peptides (4 μmol L^−1) were administered to the infected area. Animals were euthanized and the area of scarified skin was excised two and four days post-infection (FIG. 8B) homogenized using a bead beater for 20 minutes (25 Hz), and serially diluted for CFU quantification (****p<0.0001). FIG. 8C. Mouse body weight measurements throughout the experiment normalized by the body weight of non-infected mice. […] FIG. 8D. Longer experiment (four days) using a higher concentration (64 μmol L^−1) of peptides Pol-CP—NH2 and [Lys]'-Pol-CP—NH2 (****p<0.0001).
Scarification Skin Infection Mouse Model. P. aeruginosa strain PA14 was grown to an optical density at 600 nm (OD600) of 1 in tryptic soy broth (TSB) medium. […] Animals were euthanized and the area of scarified skin was excised two and four days post-infection, homogenized using a bead beater for 20 minutes (25 Hz), and serially diluted for CFU quantification. […] Statistical significance was assessed using a one-way ANOVA.

Entries after “also recorded” stand apart in the source; their conditions may differ.

For orientation: MIC means the smallest concentration in the dilution series that meets the test's criterion for growth inhibition. Low values mean a more susceptible organism, high ones a less susceptible organism. With “H-ILGTILGLLKSL-NH2 [WT, ILGTILGLLKSL-NH2, reference compound]”, the MIC in experiment [1] was 8.0 µM; in experiment [2], 64.0 µM; in experiment [3] it was 64.0 µM.

With “H-ILGTILKLLKSL-NH2 [Peptide 16, ILGTILKLLKSL-NH2]”, the “in vivo anti-infective activity (CFU)” value in experiment [4] (64 μmol L^−1, four days, listed as [Lys]^7-Pol-CP—NH2) is “nearly sterilized the infection; also recorded: virtually sterilizing abscess infections”. Further, the “in vivo antimicrobial activity (bacterial load, CFU)” value in experiment [4] (single dose of 4 μmol L^−1 one day after infection) is listed as “most active”.
